This is an account of results in patent US11931429B2, “Chemiluminescent probes for diagnostics and in vivo imaging” (RAMOT AT TEL-AVIV UNIVERSITY LTD., priority 2016, dated 2024).

A short description of series [1]: Chemiluminescence of adamantylidene-dioxetane luminophores 5b-9b in PBS 7.4. Type of series: physicochemical. The conditions noted are these: for chemiluminescence emission signal relative to dioxetane 5b / λ maxCL [nm]: PBS 7.4; for ΦCL(H20) %: aqueous, 5b as reference; for Relative CL emission: relative to 5b; for chemiluminescence emission signal upon deprotonation: water / PBS 7.4.

Series [2] is described as follows: Absorbance and fluorescence of phenol-benzoate derivatives in PBS 7.4. Type of series: physicochemical. The conditions noted are these: for fluorescence emission intensity relative to parent benzoate without chlorine: 7a vs 6a, 9a vs 8a; for ΦFluorescence / ε 400 nm / λ maxem [nm] / λ maxex [nm]: PBS 7.4; for Relative fluorescence emission: PBS 7.4, relative to 6a. As for the experimental part: General. […] Fluorescence quantum yield was determined using Hamamatsu Quantaurus-QY.
To evaluate the substituent effect, numerous phenol-benzoate derivatives with acceptor substituents at ortho and para positions of the phenol were synthesized, and their fluorescent emission in PBS 7.4 were measured. The most significant effect was obtained when an acceptor was incorporated at the ortho position of the phenol. Following broad screen of electron-withdrawing groups, we chose to focus on the chlorine, methyl-acrylate and acrylonitrile substituents. It was previously shown that in order to enable the chemiexcitation mechanism under physiological conditions, a chlorine substituent is introduced at the ortho position of phenolic ring. This electron-withdrawing substituent decreases the pKa of the phenol released after cleavage of the protecting group and thereby enriches the relative concertation of the phenolate species in physiological pH. The methyl-acrylate and acrylonitrile substituents induced the highest increase in fluorescence emission of their corresponded phenol-benzoates. The absorbance and fluorescence spectra of selected phenol-benzoate derivatives are shown in FIG. 11, and their molecular structure and spectroscopic parameters are summarized Table 9.

In another series the test system is β-galactosidase. The conditions noted are these: 1 μM, 1.5 units/mL β-galactosidase; for chemiluminescence emission signal relative to Probe 5: PBS pH 7.4 (10% DMSO), room temp.

Entries after “also recorded” stand apart in the source; their conditions may differ.

Experimental for β-galactosidase: Next, we measured the light chemiluminescence emission of the probes, as a function of time, in the presence and in the absence of β-galactosidase.
Commercially available Emerald-II™ enhancer (10%) was added to Probe 5 in the presence of β-galactosidase (in PBS 7.4) and its chemiluminescence emission was compared to that of Probe 6.

Turning to `COC1(c2ccc(/C=C/C#N)c(O)c2Cl)OOC12C1CC3CC(C1)CC2C3` (stereo not shown) [Phenol 9b], in series [1], the “chemiluminescence emission signal relative to dioxetane 5b” value is reported as “about 3000 fold”, the “λ maxCL [nm]” value amounted to 525 nm, the “ΦCL(H20) %” value is 9.8% and the “Relative CL emission” value amounted to 3043. In series [1], the “chemiluminescence emission signal upon deprotonation” value is “remarkably strong chemiluminescence emission signal”.
As for `COC(=O)/C=C/c1ccc(C(=O)OC)c(Cl)c1O` [Benzoate 7a], in series [2], the “fluorescence emission intensity relative to parent benzoate without chlorine” value was “about 10 fold”, the ΦFluorescence worked out at 5.2%, the “ε 400 nm” value is reported as 7400 and the “λ maxem [nm]” value worked out at 550 nm. Moreover, in series [2], the “λ maxex [nm]” value was 400 nm and the Relative fluorescence emission is given as 10.6.
With `COC1(c2ccc(/C=C/C#N)c(OCc3ccc(O[C@@H]4OC(CO)[C@H](O)C(O)C4O)cc3)c2Cl)OOC12C1CC3CC(C1)CC2C3` (stereo partly shown) [Probe 9], in the series with β-galactosidase (PBS 7.4 (10% DMSO)), the “chemiluminescence emission signal relative to Probe 5 with Emerald-II™ enhancer” value is reported as “more than 8 fold”. The “chemiluminescence emission signal relative to Probe 5” value in the series on β-galactosidase is on record as “about 1800 fold”.
In the case of `COC(=O)/C=C/c1ccc(C2(OC)OOC23C2CC4CC(C2)CC3C4)cc1O` (stereo not shown) [Phenol 6b], in series [1], the “chemiluminescence emission signal relative to dioxetane 5b” value is on record as “about 700 fold”, the “λ maxCL [nm]” value worked out at 540 nm, the “ΦCL(H20) %” value worked out at 2.3% and the “Relative CL emission” value turned out to be 724. For the same compound, the “chemiluminescence emission signal upon deprotonation” value in series [1] is recorded as “remarkably strong chemiluminescence emission signal”.
On to `COC(=O)c1cccc(O)c1Cl` [Benzoate 5a, reference compound], for which, in series [2], the “λ maxem [nm]” value is 470 nm, the “λ maxex [nm]” value turned out to be 290 nm and the Relative fluorescence emission result is “do not present any measurable fluorescence; also recorded: Negligible”.
Take `COC(=O)c1ccc(/C=C/C#N)c(O)c1` [Benzoate 8a]: in series [2], the ΦFluorescence is given as 7%, the “ε 400 nm” value is 2200, the “λ maxem [nm]” value is on record as 525 nm and the “λ maxex [nm]” value was determined as 400 nm. Further, the Relative fluorescence emission in series [2] amounted to 4.7.
`COC(=O)/C=C/c1ccc(C(=O)OC)cc1O` [Benzoate 6a]: in series [2], the ΦFluorescence is listed as 0.5%, the “ε 400 nm” value is 1200, the “λ maxem [nm]” value amounted to 550 nm and the “λ maxex [nm]” value amounted to 400 nm. For the same compound, the Relative fluorescence emission in series [2] came out at 1.
In the case of `COC1(c2ccc(/C=C/C#N)c(O)c2)OOC12C1CC3CC(C1)CC2C3` (stereo not shown) [Phenol 8b], in series [1], the “λ maxCL [nm]” value is on record as 525 nm, the “ΦCL(H20) %” value amounted to 7.4%, the “Relative CL emission” value turned out to be 2295 and the “chemiluminescence emission signal upon deprotonation” value was “remarkably strong chemiluminescence emission signal”.
On to `COC(=O)/C=C/c1ccc(C2(OC)OOC23C2CC4CC(C2)CC3C4)c(Cl)c1O` (stereo not shown) [Phenol 7b], for which, in series [1], the “λ maxCL [nm]” value is on record as 540 nm, the “ΦCL(H20) %” value is listed as 2.5%, the “Relative CL emission” value worked out at 780 and the “chemiluminescence emission signal upon deprotonation” value is given as “remarkably strong chemiluminescence emission signal”.
For `COC(=O)c1cccc(O)c1` [Benzoate 4a, reference compound], in series [2], the “λ maxem [nm]” value was 470 nm, the “λ maxex [nm]” value came out at 290 nm and the Relative fluorescence emission entry is reported as “do not present any measurable fluorescence; also recorded: negligible”.
As for `COC(=O)c1ccc(/C=C/C#N)c(O)c1Cl` [Benzoate 9a], in series [2], the “fluorescence emission intensity relative to parent benzoate without chlorine” value was “about 4 fold”, the ΦFluorescence was 29.8%, the “ε 400 nm” value was 7700 and the “λ maxem [nm]” value was found to be 525 nm. For the same compound, in series [2], the “λ maxex [nm]” value turned out to be 400 nm and the Relative fluorescence emission worked out at 18.0.
On to `COC(=O)/C=C/c1ccc(C2(OC)OOC23C2CC4CC(C2)CC3C4)cc1OCc1ccc(O[C@@H]2OC(CO)[C@H](O)C(O)C2O)cc1` (stereo partly shown) [Probe 6], for which the “chemiluminescence emission signal relative to Probe 5” value with β-galactosidase was “about 500 fold”.
